This is an account of results in ChEMBL document CHEMBL1649085.

Type in all cases: ADME, organism-based
Series [1] in a line: AUC (0 to time) in rat at 10 mg/kg, po. Conditions: plasma. Also on record: dose 10 mg/kg, route oral.
Series [2] is described as follows: Cmax in rat at 10 mg/kg, po. Also on record: dose 10 mg/kg, route oral. Particulars: in vivo.
The nature of series [3]: Ratio of drug level in brain to plasma in rat at 10 mg/kg, po. Also on record: dose 10 mg/kg, route oral.
Series [4] deals with Plasma. Description: Drug uptake in rat plasma at 10 mg/kg, po. Also on record: dose 10 mg/kg, route oral. Particulars: in vivo.
In series [5] the test system is Brain. Description: Drug uptake in rat brain at 10 mg/kg, po. Also on record: dose 10 mg/kg, route oral. Particulars: in vivo, read-out: Drug uptake.
A short description of series [6]: Tmax in rat at 10 mg/kg, po. Also on record: dose 10 mg/kg, route oral. Conditions: in vivo.
The nature of series [7]: Oral bioavailability in rat at 10 mg/kg, po. Particulars: in vivo.

As a reminder, the AUC(0-t) is exposure summed from dosing to a finite time, without extrapolation to infinity. A higher AUC(0-t) goes with more exposure. Broadly, the Cmax is the highest concentration seen after dosing. Broadly, the Tmax is the time at which the peak concentration occurs. In series [1], `O=C(O)c1cc(-c2cccc(COc3ccc4c(=O)n(C5CCCC5)sc4c3)c2)ccc1Cl` showed an AUC(0-t) of 43.3 µM·h. This molecule gave a Cmax in series [2] of 4.1 µM. Also, the BPR in series [3] is 4.8. Besides, the concentration in series [4] came to 1 µM; in series [5], 4.8 µM. The Tmax in series [6] was 1.83 h.
For orientation: bioavailability means the share of a dose that reaches the circulation, judged against a reference dose that is usually intravenous. On to `O=C(O)c1cc(-c2cccc(COc3ccc4c(c3)CN(C3CCCC3)C4=O)c2)ccc1Cl`, for which the AUC(0-t) in series [1] was 106 µM·h. The molecule further registered a Cmax in series [2] of 14.4 µM. The BPR in series [3] is 0.3. In addition, the results for the concentration in series [4] and in series [5] were 12.3 µM and 3.8 µM, respectively. For the same molecule, the bioavailability in series [7] was determined as 40%. In addition, the time of peak concentration (Tmax) in series [6] is 1.33 h.
On to `Cc1c(OCc2cccc(-c3ccc(C(=O)O)cc3)c2)cc2c(c1C)C(=O)C(C1CCCC1)C2` (stereo not drawn), for which the AUC(0-t) in series [1] was 0.281 µM·h. In series [2], this molecule had a Cmax of 0.097 µM. For the same molecule, the concentration in series [4] came out at 0.027 µM. The bioavailability in series [7] came to 33%. In addition, the Tmax in series [6] was 2 h.
